Assay results taken from ChEMBL document CHEMBL1201862, “PubChem BioAssay data set” (2004).
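How tested: cells in 96-well plates exposed to compound for 48 hours at five concentrations. GI50 = concentration required for 50% inhibition of growth.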 The source made the active and inactive calls. No stated cut-off is given here; in the data, active = GI50 up to about 1.1 µM and inactive = higher.

Legend:
Assay in all cases: NCI-60 cell line screen, 48 h
[1] = tested on: KM12
[2] = tested on: SF-268
[3] = tested on: SK-OV-3
[4] = tested on: HCT-116
[5] = tested on: SK-MEL-28
[6] = tested on: BT-549
[7] = tested on: IGROV-1
[8] = tested on: SR
[9] = tested on: Malme-3M
[10] = tested on: UACC-62
[11] = tested on: NCI/ADR-RES
[12] = tested on: HT-29
[13] = tested on: SF-295
[14] = tested on: HL-60
[15] = tested on: OVCAR-3
[16] = tested on: MCF7
[17] = tested on: MOLT-4
[18] = tested on: SW-620
[19] = tested on: CCRF-CEM
[20] = tested on: MDA-N

## COc1cc2nc(-c3cccs3)nc(N3C(c4cc(OC)c(OC)c(OC)c4)=NNC(=O)c4ccccc43)c2cc1OC
[1]
  GI50: 18.5 µM (inactive)
[2]
  GI50: 12 µM (inactive)
[3]
  GI50: 71.1 µM (inactive)
[4]
  GI50: > 100 µM (inactive)
[5]
  GI50: 21.9 µM (inactive)
[6]
  GI50: 18.9 µM (inactive)
[7]
  GI50: 33.9 µM (inactive)
[8]
  GI50: 6.93 µM (inactive)
[9]
  GI50: 18.7 µM (inactive)
[10]
  GI50: 17.4 µM (inactive)
[11]
  GI50: 3.4 µM (inactive)
[12]
  GI50: 23.3 µM (inactive)
[13]
  GI50: 17.9 µM (inactive)
[14]
  GI50: 54.7 µM (inactive)
[15]
  GI50: 6.43 µM (inactive)
[16]
  GI50: 46.3 µM (inactive)
[17]
  GI50: > 100 µM (inactive)

## COc1ccc2nc3cc(Cl)ccc3c(NCCCN(Cc3cc(OC)c(OC)c(OC)c3)Cc3cc(OC)c(OC)c(OC)c3)c2c1
[1]
  GI50: 13.8 µM (inactive)
[2]
  GI50: 13.5 µM (inactive)
[3]
  GI50: 17.1 µM (inactive)
[4]
  GI50: 0.174 µM (active)
[18]
  GI50: 1.14 µM (inactive)
[5]
  GI50: 16.4 µM (inactive)
[6]
  GI50: 14.1 µM (inactive)
[7]
  GI50: 15.3 µM (inactive)
[8]
  GI50: 2.31 µM (inactive)
[9]
  GI50: 17.7 µM (inactive)
[10]
  GI50: 18.4 µM (inactive)
[11]
  GI50: 23.4 µM (inactive)
[12]
  GI50: 2.31 µM (inactive)
[13]
  GI50: 3.33 µM (inactive)
[15]
  GI50: 19 µM (inactive)
[16]
  GI50: 13.6 µM (inactive)
[17]
  GI50: 1.34 µM (inactive)

## NC(=O)NNc1nc(-c2ccccc2)cs1
[1]
  GI50: > 100 µM (inactive)
[2]
  GI50: > 100 µM (inactive)
[3]
  GI50: > 100 µM (inactive)
[4]
  GI50: > 100 µM (inactive)
[18]
  GI50: > 100 µM (inactive)
[19]
  GI50: 47 µM (inactive)
[5]
  GI50: > 100 µM (inactive)
[6]
  GI50: > 100 µM (inactive)
[7]
  GI50: > 100 µM (inactive)
[8]
  GI50: > 100 µM (inactive)
[9]
  GI50: > 100 µM (inactive)
[10]
  GI50: > 100 µM (inactive)
[11]
  GI50: > 100 µM (inactive)
[12]
  GI50: > 100 µM (inactive)
[13]
  GI50: > 100 µM (inactive)
[15]
  GI50: > 100 µM (inactive)
[16]
  GI50: > 100 µM (inactive)
[17]
  GI50: > 100 µM (inactive)

## CC(O)CC(O)(C(F)(F)F)C(F)(F)F (stereo not given)
[1]
  GI50: > 10 µM (inactive)
[2]
  GI50: > 10 µM (inactive)
[3]
  GI50: > 10 µM (inactive)
[4]
  GI50: > 10 µM (inactive)
[18]
  GI50: > 10 µM (inactive)
[19]
  GI50: > 10 µM (inactive)
[5]
  GI50: > 10 µM (inactive)
[7]
  GI50: > 10 µM (inactive)
[8]
  GI50: > 10 µM (inactive)
[9]
  GI50: > 10 µM (inactive)
[10]
  GI50: > 10 µM (inactive)
[11]
  GI50: > 10 µM (inactive)
[12]
  GI50: > 10 µM (inactive)
[20]
  GI50: > 10 µM (inactive)
[13]
  GI50: > 10 µM (inactive)
[14]
  GI50: > 10 µM (inactive)
[15]
  GI50: > 10 µM (inactive)
[16]
  GI50: > 10 µM (inactive)
[17]
  GI50: > 10 µM (inactive)

## CC(C)(CO)CNc1nc(N)nc(Cl)c1N
[1]
  GI50: > 100 µM (inactive)
[2]
  GI50: > 100 µM (inactive)
[3]
  GI50: > 100 µM (inactive)
[4]
  GI50: > 100 µM (inactive)
[18]
  GI50: > 100 µM (inactive)
[19]
  GI50: > 100 µM (inactive)
[5]
  GI50: > 100 µM (inactive)
[6]
  GI50: > 100 µM (inactive)
[7]
  GI50: > 100 µM (inactive)
[9]
  GI50: > 100 µM (inactive)
[10]
  GI50: > 100 µM (inactive)
[11]
  GI50: > 100 µM (inactive)
[12]
  GI50: > 100 µM (inactive)
[20]
  GI50: > 100 µM (inactive)
[13]
  GI50: > 100 µM (inactive)
[15]
  GI50: > 100 µM (inactive)
[16]
  GI50: > 100 µM (inactive)
[17]
  GI50: > 100 µM (inactive)

## Cc1cc(S(=O)(=O)[N-]/C(=N/S(=O)(=O)c2ccc(Cl)cc2)[n+]2ccc(N(C)C)cc2)c(SCC(=O)O)cc1Cl
[1]
  GI50: > 100 µM (inactive)
[2]
  GI50: > 100 µM (inactive)
[3]
  GI50: 75 µM (inactive)
[4]
  GI50: 26.4 µM (inactive)
[18]
  GI50: 64.1 µM (inactive)
[19]
  GI50: 45.3 µM (inactive)
[6]
  GI50: > 100 µM (inactive)
[8]
  GI50: 35 µM (inactive)
[9]
  GI50: 33.2 µM (inactive)
[10]
  GI50: 91.4 µM (inactive)
[12]
  GI50: 57.5 µM (inactive)
[13]
  GI50: 30.7 µM (inactive)
[14]
  GI50: > 100 µM (inactive)
[15]
  GI50: 69.7 µM (inactive)
[16]
  GI50: 43.8 µM (inactive)
[17]
  GI50: 34.7 µM (inactive)
